Tested on: MV-4-11 cells
Experiment: Gene expression microarray analysis (Affymetrix PrimeView) and GSEA
Assay type: cell-based, human
Set-up: RFU PODN (11730768_x_at) / Fold change /veh PODN (11730768_x_at) / RFU LINC00158 (11744669_a_at) / Fold change /veh LINC00158 (11744669_a_at) / RFU DUSP10 (11751237_a_at) / Fold change /veh DUSP10 (11751237_a_at) / RFU ID3 (11757404_x_at) / Fold change /veh ID3 (11757404_x_at) / RFU PLEKHG5 (11737974_s_at) / Fold change /veh PLEKHG5 (11737974_s_at) / RFU LRRC4B (11730491_at) / Fold change /veh LRRC4B (11730491_at) / RFU GIMAP4 (11747438_a_at) / Fold change /veh GIMAP4 (11747438_a_at) / RFU KRT8 (11758183_x_at) / Fold change /veh KRT8 (11758183_x_at) / RFU CNN1 (11734310_a_at) / Fold change /veh CNN1 (11734310_a_at) / RFU VPS37D (11726825_at) / Fold change /veh VPS37D (11726825_at) / RFU C10orf10 (11716522_x_at) / Fold change /veh C10orf10 (11716522_x_at) / RFU KIR2DL2 /// KIR2DL4 /// KIR2DL5A /// KIR2DL5B /// KIR2DS1 /// KIR2DS2 /// KIR2DS3 /// KIR2DS4 /// KIR3DL3 /// KIR3DL3 /// KIR3DS1 (11738374_at) / Fold change /veh KIR2DL2 /// KIR2DL4 /// KIR2DL5A /// KIR2DL5B /// KIR2DS1 /// KIR2DS2 /// KIR2DS3 /// KIR2DS4 /// KIR3DL3 /// KIR3DL3 /// KIR3DS1 (11738374_at) / RFU C1QL1 (11718748_at) / Fold change /veh C1QL1 (11718748_at) / RFU TMPRSS4 (11747572_a_at) / Fold change /veh TMPRSS4 (11747572_a_at) / RFU HAMP (11756126_x_at) / Fold change /veh HAMP (11756126_x_at) / RFU RNFT2 (11725882_a_at) / Fold change /veh RNFT2 (11725882_a_at) / RFU NR4A2 (11747474_a_at) / Fold change /veh NR4A2 (11747474_a_at) / RFU ABCC12 (11746883_a_at) / Fold change /veh ABCC12 (11746883_a_at) / RFU TMEM136 (11760407_x_at) / Fold change /veh TMEM136 (11760407_x_at) / RFU CLDN22 /// WWC2 (11732394_at) / Fold change /veh CLDN22 /// WWC2 (11732394_at) / RFU HLA-DPB1 (11760878_x_at) / Fold change /veh HLA-DPB1 (11760878_x_at) / RFU SPINT1 (11716480_a_at) / Fold change /veh SPINT1 (11716480_a_at) / RFU GAP43 (11754022_s_at) / Fold change /veh GAP43 (11754022_s_at) / RFU A4GNT (11735810_at) / Fold change /veh A4GNT (11735810_at) / RFU PRB3 (11715151_x_at) / Fold change /veh PRB3 (11715151_x_at) / RFU TUBB4B (11761932_at) / Fold change /veh TUBB4B (11761932_at) / RFU CAPN14 (11732068_a_at) / Fold change /veh CAPN14 (11732068_a_at) / RFU TMCC2 (11721928_a_at) / Fold change /veh TMCC2 (11721928_a_at) / RFU IRGQ (11745062_a_at) / Fold change /veh IRGQ (11745062_a_at) / RFU FAM174B (11720279_a_at) / Fold change /veh FAM174B (11720279_a_at) / RFU TMPRSS4 (11748680_a_at) / Fold change /veh TMPRSS4 (11748680_a_at) / RFU FAM212B (11763350_a_at) / Fold change /veh FAM212B (11763350_a_at) / RFU PLEKHG5 (11743358_a_at) / Fold change /veh PLEKHG5 (11743358_a_at) / RFU ZSCAN30 (11745921_a_at) / Fold change /veh ZSCAN30 (11745921_a_at) / RFU CMKLR1 (11741424_a_at) / Fold change /veh CMKLR1 (11741424_a_at) / RFU LOC101060620 /// MAPK8IP1 (11723275_at) / Fold change /veh LOC101060620 /// MAPK8IP1 (11723275_at) / RFU SPTSSB (11747773_x_at) / Fold change /veh SPTSSB (11747773_x_at) / RFU PRSS12 (11739890_at) / Fold change /veh PRSS12 (11739890_at) / RFU BIN1 (11741810_x_at) / Fold change /veh BIN1 (11741810_x_at) / RFU WNT11 (11732464_a_at) / Fold change /veh WNT11 (11732464_a_at) / RFU C10orf10 (11716521_a_at) / Fold change /veh C10orf10 (11716521_a_at) / RFU C5orf56 (11738089_at) / Fold change /veh C5orf56 (11738089_at) / RFU CYB561 (11721691_x_at) / Fold change /veh CYB561 (11721691_x_at) / RFU ANKRD19P (11752326_a_at) / Fold change /veh ANKRD19P (11752326_a_at) / RFU OR2T12 /// OR2T33 /// OR2T8 (11738714_s_at) / Fold change /veh OR2T12 /// OR2T33 /// OR2T8 (11738714_s_at) / RFU VCAN (11748164_a_at) / Fold change /veh VCAN (11748164_a_at) / RFU JSRP1 (11732532_at) / Fold change /veh JSRP1 (11732532_at) / RFU KRTAP10-11 (11738290_x_at) / Fold change /veh KRTAP10-11 (11738290_x_at) / RFU MYO3A (11730013_a_at) / Fold change /veh MYO3A (11730013_a_at) / RFU EBF3 (11725865_a_at) / Fold change /veh EBF3 (11725865_a_at) / RFU CAMK2N1 (11719241_x_at) / Fold change /veh CAMK2N1 (11719241_x_at) / RFU C5orf56 (11738088_a_at) / Fold change /veh C5orf56 (11738088_a_at) / RFU OLFML3 (11715873_a_at) / Fold change /veh OLFML3 (11715873_a_at) / RFU LOC100653217 /// NTM (11731650_a_at) / Fold change /veh LOC100653217 /// NTM (11731650_a_at) / RFU MAPK11 (11762145_a_at) / Fold change /veh MAPK11 (11762145_a_at) / RFU FIZ1 (11724087_x_at) / Fold change /veh FIZ1 (11724087_x_at) / RFU OASL (11726364_x_at) / Fold change /veh OASL (11726364_x_at) / RFU SOX15 (11748057_x_at) / Fold change /veh SOX15 (11748057_x_at) / RFU CD79A (11719716_a_at) / Fold change /veh CD79A (11719716_a_at) / RFU HIST1H1D (11736915_at) / Fold change /veh HIST1H1D (11736915_at) / RFU CASKIN2 (11723855_a_at) / Fold change /veh CASKIN2 (11723855_a_at) / RFU LOC730098 (11760151_x_at) / Fold change /veh LOC730098 (11760151_x_at) / RFU OR4N2 (11742367_at) / Fold change /veh OR4N2 (11742367_at) / RFU PRRT2 (11749266_a_at) / Fold change /veh PRRT2 (11749266_a_at) / RFU SNX32 (11753110_a_at) / Fold change /veh SNX32 (11753110_a_at) / RFU CDHR5 (11726645_a_at) / Fold change /veh CDHR5 (11726645_a_at) / RFU RCAN1 (11760418_a_at) / Fold change /veh RCAN1 (11760418_a_at) / RFU FAM167A (11723789_a_at) / Fold change /veh FAM167A (11723789_a_at) / RFU FAM26E (11764081_at) / Fold change /veh FAM26E (11764081_at) / RFU ISYNA1 (11749810_s_at) / Fold change /veh ISYNA1 (11749810_s_at) / RFU ACY1 (11761880_at) / Fold change /veh ACY1 (11761880_at) / RFU 11764098_at / Fold change /veh 11764098_at / RFU SAMD14 (11745864_x_at) / Fold change /veh SAMD14 (11745864_x_at) / RFU NPB (11741838_a_at) / Fold change /veh NPB (11741838_a_at) / RFU TMPRSS6 (11731388_a_at) / Fold change /veh TMPRSS6 (11731388_a_at) / RFU KRTAP10-2 (11738614_at) / Fold change /veh KRTAP10-2 (11738614_at) / RFU ARHGAP8 /// PRR5-ARHGAP8 (11727945_x_at) / Fold change /veh ARHGAP8 /// PRR5-ARHGAP8 (11727945_x_at) / RFU KRTAP5-7 /// NADSYN1 (11734609_at) / Fold change /veh KRTAP5-7 /// NADSYN1 (11734609_at) / RFU RASL12 (11751679_a_at) / Fold change /veh RASL12 (11751679_a_at) / RFU CDKN2B (11736163_a_at) / Fold change /veh CDKN2B (11736163_a_at) / RFU PRF1 (11729649_at) / Fold change /veh PRF1 (11729649_at) / RFU, ZNF638 /// ZNF638-IT1 / Fold change vs veh, ZNF638 /// ZNF638-IT1 / RFU, PANK3 / Fold change vs veh, PANK3 / RFU, SH3YL1 / Fold change vs veh, SH3YL1 / RFU, ZEB2 / Fold change vs veh, ZEB2 / RFU, NRIP1 / Fold change vs veh, NRIP1 / RFU, PTTG1IP / Fold change vs veh, PTTG1IP / RFU, CAPN2 / Fold change vs veh, CAPN2 / RFU, MED14 / Fold change vs veh, MED14 / RFU, SNORA58 / Fold change vs veh, SNORA58 / RFU, C1orf63 / Fold change vs veh, C1orf63 / RFU, LRRFIP1 / Fold change vs veh, LRRFIP1 / RFU, NDUFAF7 / Fold change vs veh, NDUFAF7 / RFU, SLC12A2 / Fold change vs veh, SLC12A2 / RFU, IBTK / Fold change vs veh, IBTK / RFU, ESF1 / Fold change vs veh, ESF1 / Fold change vs veh, TMEM50B / RFU, TAOK1 / Fold change vs veh, TAOK1 / RFU, ACBD3 / Fold change vs veh, ACBD3 / RFU, TMA16 / Fold change vs veh, TMA16 / RFU, RWDD3 / Fold change vs veh, RWDD3 / RFU, BCAT1 / Fold change vs veh, BCAT1 / RFU, EDEM3 / Fold change vs veh, EDEM3 / RFU, TMEM33 / Fold change vs veh, TMEM33 / RFU, WDR75 / Fold change vs veh, WDR75 / RFU, AHCTF1 / Fold change vs veh, AHCTF1 / RFU, TFRC / Fold change vs veh, TFRC / RFU, ZDHHC17 / Fold change vs veh, ZDHHC17 / RFU, NOM1 / Fold change vs veh, NOM1 / RFU, ARL8B / Fold change vs veh, ARL8B / RFU, ZBTB11 / Fold change vs veh, ZBTB11 / RFU, TAMM41 / Fold change vs veh, TAMM41 / RFU, KIAA1704 /// LOC100996395 / Fold change vs veh, KIAA1704 /// LOC100996395 / RFU, ING1 / Fold change vs veh, ING1 / RFU, TRMT61B / Fold change vs veh, TRMT61B / RFU, FUBP3 / Fold change vs veh, FUBP3 / RFU, TP53 / Fold change vs veh, TP53 / RFU, TNKS2 / Fold change vs veh, TNKS2 / RFU, ZFP14 / Fold change vs veh, ZFP14 / RFU, ACTR2 / Fold change vs veh, ACTR2 / RFU, PPP3R1 / Fold change vs veh, PPP3R1 / RFU, PIK3R1 / Fold change vs veh, PIK3R1 / RFU, HNRNPA1 / Fold change vs veh, HNRNPA1 / RFU, RNF170 / Fold change vs veh, RNF170 / RFU, ZNF28 / Fold change vs veh, ZNF28 / RFU, RNGTT / Fold change vs veh, RNGTT / RFU, OGT / Fold change vs veh, OGT / RFU, BRD1 / Fold change vs veh, BRD1 / RFU, MARS / Fold change vs veh, MARS / RFU, ZNF655 / Fold change vs veh, ZNF655 / RFU, FAHD1 / Fold change vs veh, FAHD1 / RFU, BDP1 / Fold change vs veh, BDP1 / RFU, LRRCC1 / Fold change vs veh, LRRCC1 / RFU, ARID1A / Fold change vs veh, ARID1A / RFU, ZNF146 / Fold change vs veh, ZNF146 / RFU, ZNF330 / Fold change vs veh, ZNF330 / RFU, GPN3 / Fold change vs veh, GPN3 / RFU, C9orf123 / Fold change vs veh, C9orf123 / RFU, N4BP2L2 / Fold change vs veh, N4BP2L2 / RFU, ARFIP1 / Fold change vs veh, ARFIP1 / RFU, FAM179B / Fold change vs veh, FAM179B / RFU, BCL10 / Fold change vs veh, BCL10 / RFU, UHRF1BP1L / Fold change vs veh, UHRF1BP1L / RFU, BET1 / Fold change vs veh, BET1 / RFU, CNOT2 / Fold change vs veh, CNOT2 / RFU, ZNF268 / Fold change vs veh, ZNF268 / Fold change vs veh, ZNF507 / RFU, DGCR2 / Fold change vs veh, DGCR2 / RFU, WDSUB1 / Fold change vs veh, WDSUB1 / Fold change vs veh, HSP90B1 /// MIR3652 / RFU, ADSS / Fold change vs veh, ADSS / RFU, GK / Fold change vs veh, GK / RFU, ZNF148 / Fold change vs veh, ZNF148 / RFU, TAF9 / Fold change vs veh, TAF9 / RFU, SLC1A5 / Fold change vs veh, SLC1A5 / RFU, SLMO2 / Fold change vs veh, SLMO2 / RFU, ABCC4 / Fold change vs veh, ABCC4 / RFU, LOC101060439 /// RAP1B / Fold change vs veh, LOC101060439 /// RAP1B / RFU, RFX7 / Fold change vs veh, RFX7 / RFU, GTPBP10 / Fold change vs veh, GTPBP10 / RFU, CNEP1R1 / Fold change vs veh, CNEP1R1 / RFU, BIVM-ERCC5 /// ERCC5 / Fold change vs veh, BIVM-ERCC5 /// ERCC5 / RFU, ILF3 / Fold change vs veh, ILF3 / RFU 11762660_at / Fold change /veh 11762660_at / RFU VCAN (11757783_s_at) / Fold change /veh VCAN (11757783_s_at) / RFU DDX43 (11728927_at) / Fold change /veh DDX43 (11728927_at) / RFU KRT8 (11758188_x_at) / Fold change /veh KRT8 (11758188_x_at) / RFU NKD1 (11759106_at) / Fold change /veh NKD1 (11759106_at) / RFU SRD5A1 (11742802_a_at) / Fold change /veh SRD5A1 (11742802_a_at) / RFU TPSAB1 /// TPSB2 (11721975_s_at) / Fold change /veh TPSAB1 /// TPSB2 (11721975_s_at) / RFU GSTM3 (11746129_a_at) / Fold change /veh GSTM3 (11746129_a_at) / RFU IL23R (11737362_x_at) / Fold change /veh IL23R (11737362_x_at) / RFU TMEM51 (11727254_a_at) / Fold change /veh TMEM51 (11727254_a_at) / RFU PIWIL2 (11732686_x_at) / Fold change /veh PIWIL2 (11732686_x_at) / RFU ORM1 (11744905_x_at) / Fold change /veh ORM1 (11744905_x_at) / RFU CCDC152 (11743942_at) / Fold change /veh CCDC152 (11743942_at) / RFU ECM1 (11717891_a_at) / Fold change /veh ECM1 (11717891_a_at) / RFU IL23R (11748794_a_at) / Fold change /veh IL23R (11748794_a_at) / RFU TNFAIP8L3 (11732012_x_at) / Fold change /veh TNFAIP8L3 (11732012_x_at) / RFU MBOAT4 (11741988_at) / Fold change /veh MBOAT4 (11741988_at) / RFU 11764193_at / Fold change /veh 11764193_at / RFU TMEM53 (11763286_at) / Fold change /veh TMEM53 (11763286_at) / RFU MAGEB2 (11727129_at) / Fold change /veh MAGEB2 (11727129_at) / RFU TMEM200A (11744735_a_at) / Fold change /veh TMEM200A (11744735_a_at) / RFU CCDC152 (11751479_a_at) / Fold change /veh CCDC152 (11751479_a_at) / RFU FAM211A (11726209_a_at) / Fold change /veh FAM211A (11726209_a_at) / RFU RGS16 (11746705_a_at) / Fold change /veh RGS16 (11746705_a_at) / RFU VCAN (11755009_s_at) / Fold change /veh VCAN (11755009_s_at) / RFU RHOB (11743442_s_at) / Fold change /veh RHOB (11743442_s_at) / RFU RGS16 (11720943_a_at) / Fold change /veh RGS16 (11720943_a_at) / RFU RGS16 (11720944_at) / Fold change /veh RGS16 (11720944_at) / RFU, VPS4B / Fold change vs veh, VPS4B / RFU, CREB1 / Fold change vs veh, CREB1 / RFU, DNAJC13 / Fold change vs veh, DNAJC13 / RFU, GNAQ / Fold change vs veh, GNAQ / RFU, CDK5R1 / Fold change vs veh, CDK5R1 / RFU, ZRANB3 / Fold change vs veh, ZRANB3 / RFU, CUL4A / Fold change vs veh, CUL4A / RFU, CCNY / Fold change vs veh, CCNY / RFU, UFL1 / Fold change vs veh, UFL1 / RFU, COG3 / Fold change vs veh, COG3 / RFU, DIAPH2 / Fold change vs veh, DIAPH2 / RFU, SKA2 / Fold change vs veh, SKA2 / RFU, AFF3 / Fold change vs veh, AFF3 / RFU, LMF1 / Fold change vs veh, LMF1 / RFU, IPO11 / Fold change vs veh, IPO11 / RFU, DFFB / Fold change vs veh, DFFB / RFU, FOXP1 / Fold change vs veh, FOXP1 / RFU, CARD8 / Fold change vs veh, CARD8 / RFU, STRN3 / Fold change vs veh, STRN3 / RFU, ADK / Fold change vs veh, ADK / RFU, RASSF2 / Fold change vs veh, RASSF2 / RFU, WIPF1 / Fold change vs veh, WIPF1 / RFU, LARP1B / Fold change vs veh, LARP1B / RFU, RASA1 / Fold change vs veh, RASA1 / RFU, RB1 / Fold change vs veh, RB1 / RFU, PPFIA1 / Fold change vs veh, PPFIA1 / RFU, MAT2A / Fold change vs veh, MAT2A / RFU, CCT5 / Fold change vs veh, CCT5 / RFU, WDR92 / Fold change vs veh, WDR92 / RFU, CUX1 / Fold change vs veh, CUX1 / RFU, TTC7A / Fold change vs veh, TTC7A / RFU, TMEM135 / Fold change vs veh, TMEM135 / RFU, DEPTOR / Fold change vs veh, DEPTOR / RFU, CPM / Fold change vs veh, CPM / RFU, DNAJB6 / Fold change vs veh, DNAJB6 / RFU, CACNA2D3 / Fold change vs veh, CACNA2D3 / RFU, DTX4 / Fold change vs veh, DTX4 / RFU, TFCP2 / Fold change vs veh, TFCP2 / RFU, GMCL1 /// GMCL1P1 / Fold change vs veh, GMCL1 /// GMCL1P1 / RFU, AEBP2 / Fold change vs veh, AEBP2 / RFU, SNHG1 /// SNORD22 /// SNORD25 /// SNORD26 /// SNORD27 /// SNORD28 /// SNORD29 /// SNORD31 / Fold change vs veh, SNHG1 /// SNORD22 /// SNORD25 /// SNORD26 /// SNORD27 /// SNORD28 /// SNORD29 /// SNORD31 / Fold change (Aza/veh), C12orf56 (ProbeSet 11735607_a_at) / Fold change (ACY-1035/veh), C12orf56 (ProbeSet 11735607_a_at) / Fold change (Aza/veh), FGFR1OP (ProbeSet 11751329_s_at) / Fold change (ACY-1035/veh), FGFR1OP (ProbeSet 11751329_s_at) / Fold change (Aza/veh), VPS36 (ProbeSet 11739960_a_at) / Fold change (ACY-1035/veh), VPS36 (ProbeSet 11739960_a_at) / RFU SYPL1 (11715823_x_at) / Fold change /veh SYPL1 (11715823_x_at) / RFU IGFBP7 (11715501_s_at) / Fold change /veh IGFBP7 (11715501_s_at) / RFU REEP3 (11722064_at) / Fold change /veh REEP3 (11722064_at) / RFU IGLL1 (11728026_x_at) / Fold change /veh IGLL1 (11728026_x_at): dose or concentration left out as unconfirmed
Settings: ProbeSet 11727827_x_at; LIST B

Nc1ccc(-c2cccs2)cc1NC(=O)c1ccc2c(c1)cc(C1CC1)n2CCN1CCOCC1 [ACY-1035]
RFU, NDUFAF7: 59.45 RFU
